Data on four compounds can be found in patent publication US3995047A, “Propiophenone derivatives in the treatment of pathological muscular conditions” (Eisai Co., Ltd., priority 1973, dated 1976).

Some results are limits rather than exact numbers.

One series concerns mice. Description: Acute toxicity: mortality during 24 hours after oral administration. The format is in vivo. The conditions noted are these: 24 hours. The procedure: (§1) Male d,d-strain mice weighing 18 to 22 grs. were used for the experiments.
(§2) Groups of each 10 mice were treated orally and intraperitoneally with a wide range of doses of the above-mentioned compounds or saline.
(§3) The mortality ensued during 24 hours after the oral administration was recorded to determine acute toxicity of the compound under test on the mice.

Test in series [1]: as above
The format is in vivo. The note with it: mouse, in vivo, mice, mortality during 24 hours. The procedure: as §1, §2, §3

In series [2] the test system is nicotine-induced convulsive death. Description: Anti-nicotine activity: antagonism of convulsive death caused by nicotine. The format is in vivo, male d,d-strain mice. The note with it: Mus musculus, mice. On the procedure:
as §1, §2
(§4) 2) Anti-nicotine and anti-physostigmine activities:
(§5) Antagonistic effects against the convulsive death of the mice caused by the injections of nicotine, on one hand, and physostigmine, on the other hand, were observed as follows:
(§6) Thirty (30) minutes after the intraperitoneal injection of the individual compounds under test, on one hand, and 60 minutes after the oral administration of said individual compounds, on the other hand, 4 mg/kg of nicotine tartrate, on one hand, and 0.5 mg/kg of physostigmine sulfate, on the other hand, were intravenously injected to each group of the mice. The convulsive death, if any, of the mice in each group was then observed.

The test system of series [3] is isolated smooth muscle preparations. Description: Smooth muscle-relaxing activity on isolated smooth muscle preparations. The note with it: for smooth muscle-relaxant activity (in words): A at 4 × 10^-6, B at 10^-6, C at 4 × 10^-7 g/ml, concentration for control not stated. An excerpt: (§7) Additionally, anti-histamine, anti-acetylcholine, antiserotonin and smooth muscle-relaxing activities of the compounds under test were examined on isolated smooth muscle preparations.

A further series is described as follows: in vivo. More on the design: species or system male d,d-strain mice. The note with it: mouse, po. On the procedure:
as §1, §2

Series [4] concerns physostigmine-induced convulsive death. Kind of series: Anti-physostigmine activity: antagonism of convulsive death caused by physostigmine. The format is in vivo, male d,d-strain mice. The conditions noted are these: Mus musculus, 1 h; oral, mice, 60 minutes after administration; footnote 1) for control: no effect up to the dose. The procedure:
as §1, §2, §4, §5, §6

The next series relates to tremorine-induced tremor. Description: Anti-tremorine activity: antagonism of tremorine-induced tremor. The format is in vivo, male d,d-strain mice. The note with it: Mus musculus, mice. The procedure:
as §1, §2
1) Anti-tremorine activity:
Antagonistic effects on the tremorine-induced tremor were observed as follows:
Ten (10) minutes after the intraperitoneal injection of the individual compounds under test, on one hand, and 40 minutes after the oral administration of said individual compounds, on the other hand, 20 mg/kg of tremorine hydrochloride were subcutaneously injected to each group of the mice. The occurrence of tremor on the individually caged mice was visually observed 20 minutes after the tremorineinjection.

In series [5] the test system is isolated smooth muscle preparations (histamine). Kind of series: Anti-histamine activity on isolated smooth muscle preparations. The note with it: A at 4 × 10^-6, B at 10^-6, C at 4 × 10^-7 g/ml.
Excerpt: as §7

For series [6], the system named is isolated smooth muscle preparations (acetylcholine). Kind of series: Anti-acetylcholine activity on isolated smooth muscle preparations. The conditions noted are these: A at 4 × 10^-6, B at 10^-6, C at 4 × 10^-7 g/ml.
Excerpt: as §7

The mark [7] stands for this setting: 1 h, oral, 60 minutes after administration.
The mark [8] stands for this setting: ip, 0.5 h, intraperitoneal, 30 minutes after injection.

Broadly, the LD50 is the dose expected to kill half of the subjects tested. The ED50 is the dose that gives a 50% effect, or the effect in half of the subjects. Low readings indicate greater potency, high ones weaker potency.

Regarding `CCc1ccc(C(=O)C(C)CN2CCCCC2)cc1.Cl` (centres unmarked) [Compound A, 4'-ethyl-2-methyl-3-piperidino-propiophenone hydrochloride], the “acute toxicity compared with Compound under control (in words)” value in the series with mice is on record as “slighly stronger”. In series [1], this compound returned a median lethal dose (LD50) at 24 h of 800 to 1000 mg/kg. The median effective dose (ED50) in [2] (setting [7]) came out at 175 mg/kg; in series [2] (setting [8]), 21 mg/kg; in series [4], 84 mg/kg; in the series with tremorine-induced tremor (setting [7]) it was 32 mg/kg; in the series on tremorine-induced tremor (setting [8]) it was 23 mg/kg. The “smooth muscle-relaxant activity (in words)” value in series [3] is given as “strong smooth muscle-relaxant activities”. This compound also registered a TD50 at 1 h in the series “in vivo” of 640 mg/kg. In addition, the “anti-histamine activity (in words)” value in series [5] is given as “do not entirely produce”. For the same compound, in [6], the “anti-acetylcholine activity (in words)” value was “do not entirely produce”.

Take `CCCc1ccc(C(=O)C(C)CN2CCCCC2)cc1.Cl` (centres unmarked) [Compound B, 4'-n-propyl-2-methyl-3-piperidino-propiophenone hydrochloride]: the “acute toxicity compared with Compound under control (in words)” value with mice is recorded as “almost equivalent to that of Compound under control”. Further, the LD50 at 24 h in series [1] fell in the range of 1000 to 1500 mg/kg. Further, the median effective dose (ED50) in series [2] (setting [7]) is 135 mg/kg; in [2] (setting [8]), 20 mg/kg; in [4], 150 mg/kg; with tremorine-induced tremor (setting [7]) it was 50 mg/kg; in the series on tremorine-induced tremor (setting [8]) it was 21 mg/kg. Also, the “smooth muscle-relaxant activity (in words)” value in [3] is recorded as “strong smooth muscle-relaxant activities”. The same compound returned a TD50 at 1 h in “in vivo” of 800 mg/kg. For the same compound, the “anti-histamine activity (in words)” value in series [5] is “do not entirely produce”. For the same compound, the “anti-acetylcholine activity (in words)” value in series [6] is “do not entirely produce”.

In the case of `CC(CN1CCCCC1)C(=O)c1ccc(C(C)C)cc1.Cl` (centres unmarked) [Compound C, 4'-isopropyl-2-methyl-3-piperidino-propiophenone hydrochloride], in series [1], the 50% lethal dose (LD50) at 24 h lay within 400 to 500 mg/kg. The ED50 in [2] (setting [7]) worked out at 37 mg/kg; in series [2] (setting [8]), 10 mg/kg; in series [4], 50 mg/kg; in the series on tremorine-induced tremor (setting [7]) it was 118 mg/kg; in the series on tremorine-induced tremor (setting [8]) it was 25 mg/kg. Besides, the “smooth muscle-relaxant activity (in words)” value in series [3] was “strong smooth muscle-relaxant activities”. In “in vivo”, this compound returned a TD50 at 1 h of 84 mg/kg. Besides, in series [5], the “anti-histamine activity (in words)” value is on record as “do not entirely produce”. The “anti-acetylcholine activity (in words)” value in [6] is listed as “do not entirely produce”.

Turning to `Cc1ccc(C(=O)C(C)CN2CCCCC2)cc1.Cl` (centres unmarked) [Compound for Control, 2,4'-dimethyl-3-piperidino-propiophenone hydrochloride, reference compound], the LD50 at 24 h in [1] lay within 1000 to 1500 mg/kg. The median effective dose (ED50) was 450 mg/kg in series [2] (setting [7]); 35 mg/kg in series [2] (setting [8]); over 400 mg/kg in series [4]; 210 mg/kg in the series on tremorine-induced tremor (setting [7]); 80 mg/kg in the series on tremorine-induced tremor (setting [8]). Also, the “smooth muscle-relaxant activity (in words)” value in series [3] is on record as “weak smooth muscle-relaxant activity”. Further, the “smooth muscle-relaxant potency relative to papaverine” value in [3] (Compound under control vs papaverine) was “about 1/3”. In the series “in vivo”, this compound registered a TD50 at 1 h of 800 mg/kg.
